Structures can show the parent of a compound that is named as a salt.
What was measured:
[1] = target: T1, human Endothelial Differentiation G-protein Coupled Receptor 3 (EDG3), S1P3 receptor (Homo sapiens, UniProt Q99500); assay: S1P3 Assay (GeneBLAzer EDG3-Ga15-NFAT-bla HEK 293T beta-lactamase reporter, agonist dose response); assay type: cell-based; conditions: EDG3-Ga15-NFAT-bla HEK 293T cells, blue/green emission ratio, 10 point dose response, free base or salt form; read-out: pEC50 (S1P3 assay) (converted)
T1 construct: expressed in transfected cells; host or cells: GeneBLAzer EDG3-Ga15-NFAT-bla HEK 293T
Method: GeneBLAzer EDG3-Ga15-NFAT-bla HEK 293T cells (contain the human Endothelial Differentiation G-protein Coupled Receptor 3 (EDG3) and a beta-lactamase reporter gene under control of a NFAT response element and a promiscuous G Protein, Ga15, stably integrated into the GeneBLAzer Ga15-NFAT-bla HEK 293T cell line) were harvested from growth medium and suspended in assay medium (90% DMEM, 10% Charcoal-stripped FBS, 0.1 mM NEAA, 25 mM HEPES (pH 7.3), 100 U/ml penicillin, 100 μg/ml streptomycin) at a density of […]. All test compounds were dissolved in DMSO at a concentration of 10 mM and were prepared in 100% DMSO to provide 10 point dose response curves. Test compounds in the free base or in a salt form were prepared by Velocity 11 Bravo automation (Agilent) were added to wells in columns 2-11 and 13-22; DMSO was added to wells in columns 12 and 23 as unstimulated controls and assay medium was added to wells in columns 1 and 24 as cell-free controls. An S1P3 agonist was added to wells in row 2, columns 2-11 as stimulated controls and test compounds were added to wells in row 2, columns 13-22 and rows 3-15, columns 2-11/13-22 (row 1 and 16 were empty and not used). Compounds in solution were added to the assay plate (Greiner 781090) using an Echo (Labcyte) dose-response program (50 nl/well). The unstimulated and cell-free controls were loaded with 50 nl/well pure DMSO to ensure that the DMSO concentration was constant across the plate for all assays.
50 μl of the cell suspension was added to each well in columns 2-23 of the plate (˜10,000 cells per well). 50 μl of assay medium was added to each well in the cell-free controls (columns 1 and 24). The cells were incubated overnight at 37° C./5% CO2.
(§1) 10 μl of 6× substrate mixture (LiveBLAzer™-FRET B/G substrate (CCF4-AM) Cat # K1096 from Invitrogen, Inc.) was added to each well using Bravo automation and the plates incubated at room temperature for 2 h in the dark. The plate was finally read on EnVision using one excitation channel (409 nm) and two emission channels (460 nm and 530 nm).
(§2) The blue/green emission ratio (460 nm/530 nm) was calculated for each well, by dividing the background-subtracted Blue emission values by the background-subtracted Green emission values. The dose response curve is based on sigmoidal dose-response model. All ratio data was normalized based upon the maximum emission ratio of positive control and minimum emission ratio of negative control (DMSO) on each plate. The intrinsic activity (IA) of each compound is defined as relative response normalised to a reference compound, whose maximum response is defined as 100% after curve fitting.

[2] = target: T2, human Endothelial Differentiation Gene 1 (EDG1), S1P1 receptor (Homo sapiens, UniProt P21453); assay: S1P1 Assay (Tango EDG1-bla/U2OS beta-lactamase reporter, agonist dose response); assay type: cell-based; conditions: EDG1-bla/U2OS cells, blue/green emission ratio, 10 point dose response, free base or salt form; read-out: pEC50 (S1P1 assay) (converted)
T2 construct: TEV protease site; Gal4-VP16 transcription factor; expressed in transfected cells; host or cells: EDG1-bla/U2OS (Tango GPCR-bla U2OS parental cell line)
Method: Recombinant EDG1-bla/U2OS cells (contain the human Endothelial Differentiation Gene 1 (EDG1) linked to a TEV protease site and a Gal4-VP16 transcription factor stably integrated into the Tango GPCR-bla U2OS parental cell line) were harvested from growth medium and passaged into assay medium (Invitrogen Freestyle Expression Medium). The cells were starved for 24 hours at 37° C., 5% CO2, harvested and resuspended in assay medium at a density of ˜200,000 cells/ml. All test compounds were dissolved in DMSO at a concentration of 10 mM and were prepared in 100% DMSO to provide 10 point dose response curves. Test compounds in the free base or in a salt form were prepared by Velocity11 Bravo automation (Agilent) were added to wells in columns 2-11 and 13-22; DMSO was added to wells in columns 12 and 23 as unstimulated controls and assay medium was added to wells in columns 1 and 24 as cell-free controls. An S1P1 agonist was added to wells in row 2, columns 2-11 as stimulated controls and test compounds were added to wells in row 2, columns 13-22 and rows 3-15, columns 2-11/13-22 (row 1 and 16 were empty and not used). Compounds in solution were added to the assay plate (Greiner 781090) using an Echo (Labcyte) dose-response program (50 nl/well). The unstimulated and cell-free controls were loaded with 50 nl/well pure DMSO to ensure that the DMSO concentration was constant across the plate for all assays. 50 μl of the cell suspension was added to each well in columns 2-23 of the plate (˜10,000 cells per well). 50 μl of assay medium was added to each well in the cell-free controls (columns 1 and 24). The cells were incubated overnight at 37° C./5% CO2.
as §1, §2

T1 sequence (Q99500 whole entry): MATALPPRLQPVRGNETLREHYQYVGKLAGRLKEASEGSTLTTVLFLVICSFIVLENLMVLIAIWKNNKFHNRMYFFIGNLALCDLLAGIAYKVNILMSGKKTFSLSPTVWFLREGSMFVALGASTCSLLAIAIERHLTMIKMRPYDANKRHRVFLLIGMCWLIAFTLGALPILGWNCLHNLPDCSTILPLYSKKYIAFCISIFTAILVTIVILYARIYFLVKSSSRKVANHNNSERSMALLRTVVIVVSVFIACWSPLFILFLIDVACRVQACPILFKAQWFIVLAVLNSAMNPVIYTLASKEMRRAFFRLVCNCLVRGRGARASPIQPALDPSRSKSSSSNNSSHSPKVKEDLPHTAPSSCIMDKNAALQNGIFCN
T2 sequence (P21453 whole entry, the tested form may be a part): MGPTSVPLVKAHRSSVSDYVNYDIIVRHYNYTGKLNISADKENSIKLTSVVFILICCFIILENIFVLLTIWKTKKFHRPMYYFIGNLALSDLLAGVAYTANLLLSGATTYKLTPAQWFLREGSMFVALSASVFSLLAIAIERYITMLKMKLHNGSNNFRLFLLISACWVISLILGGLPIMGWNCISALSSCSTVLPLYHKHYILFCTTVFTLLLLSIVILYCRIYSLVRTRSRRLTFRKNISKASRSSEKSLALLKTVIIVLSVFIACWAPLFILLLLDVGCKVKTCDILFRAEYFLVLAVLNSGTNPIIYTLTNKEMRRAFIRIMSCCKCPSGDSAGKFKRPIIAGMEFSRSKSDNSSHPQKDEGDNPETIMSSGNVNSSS

Compound	EC50 [1] [nM]	EC50 [2] [nM]
CCc1c(CN2CCC[C@H](C(=O)O)C2)cccc1-c1nnc(-c2ccc(CC(C)C)c(C#N)c2)s1 [Example 51]	> 10000	< 1
CCc1c(CN2CC(C(=O)O)C2)cccc1-c1cnc(-c2ccc(CC(C)C)c(C#N)c2)s1 [Example 43, 1-[(3-{2-[3-cyano-4-(2-methylpropyl)phenyl]-1,3-thiazol-5-yl}-2-ethylphenyl)methyl]-3-azetidinecarboxylic acid trifluoroacetate]	> 3160	< 1
CCc1c(CCN2CCC[C@H](C(=O)O)C2)cccc1-c1nnc(-c2ccc(CC(C)C)c(C#N)c2)s1 [Example 64]	> 3160	< 1
CCc1c(CN2CC(C(=O)O)C2)cccc1-c1cnc(-c2ccc(OC(C)C)c(C(F)(F)F)c2)s1 [Example 31, 1-[(2-ethyl-3-{2-[4-[(1-methylethyl)oxy]-3-(trifluoromethyl)phenyl]-1,3-thiazol-5-yl}phenyl)methyl]-3-azetidinecarboxylic acid]	> 3160	< 1
CCc1c(CN2CCC(C(=O)O)C2)cccc1-c1nnc(-c2ccc(OC(C)C)c(Cl)c2)s1 (centres unmarked) [Example 44, 1-{[3-(5-{3-chloro-4-[(1-methylethyl)oxy]phenyl}-1,3,4-thiadiazol-2-yl)-2-ethylphenyl]methyl}-3-pyrrolidinecarboxylic acid trifluoroacetate]	> 3160	≤ 10
CCc1c(CCN2CC(C(=O)O)C2)cccc1-c1nnc(-c2ccc(OC(C)C)c(C(F)(F)F)c2)s1 [Example 7, 1-[2-(2-ethyl-3-{5-[4-[(1-methylethyl)oxy]-3-(trifluoromethyl)phenyl]-1,3,4-thiadiazol-2-yl}phenyl)ethyl]-3-azetidinecarboxylic acid trifluoroacetate]	> 3160	< 1
CCc1c(CN2CCC(C(=O)O)CC2)cccc1-c1cnc(-c2ccc(OC(C)C)c(Cl)c2)s1 [Example 36, 1-{[3-(2-{3-chloro-4-[(1-methylethyl)oxy]phenyl}-1,3-thiazol-5-yl)-2-ethylphenyl]methyl}-4-piperidinecarboxylic acid trifluoroacetate]	> 10000	< 100
CCc1c(CN2CCC(C(=O)O)CC2)cccc1-c1nnc(-c2ccc(OC(C)C)c(C(F)(F)F)c2)s1 [Example 1, 1-[(2-ethyl-3-{5-[4-[(1-methylethyl)oxy]-3-(trifluoromethyl)phenyl]-1,3,4-thiadiazol-2-yl}phenyl)methyl]-4-piperidinecarboxylic acid]	> 3160	< 1
CCc1c(CN2CCC(C(=O)O)CC2)cccc1-c1nnc(-c2ccc(CC(C)C)c(C#N)c2)s1 [Example 8, 1-[(3-{5-[3-cyano-4-(2-methylpropyl)phenyl]-1,3,4-thiadiazol-2-yl}-2-ethylphenyl)methyl]-4-piperidinecarboxylic acid trifluoroacetate]	> 3160	< 1
CCc1c(CCN2CCC[C@H]2C(=O)O)cccc1-c1nnc(-c2ccc(CC(C)C)c(C#N)c2)s1 [Example 59, 1-[2-(3-{5-[3-cyano-4-(2-methylpropyl)phenyl]-1,3,4-thiadiazol-2-yl}-2-ethylphenyl)ethyl]-L-proline]	> 10000	≤ 10
CCc1c(CCN2CCCC(C(=O)O)C2)cccc1-c1nnc(-c2ccc(OC(C)C)c(Cl)c2)s1 (centres unmarked) [Example 56]	> 3160	< 1
CCc1c(CCN2CCC(C(=O)O)CC2)cccc1-c1cnc(-c2ccc(OC(C)C)c(C#N)c2)s1 [Example 37, 1-{2-[3-(2-{3-cyano-4-[(1-methylethyl)oxy]phenyl}-1,3-thiazol-5-yl)-2-ethylphenyl]ethyl}-4-piperidinecarboxylic acid trifluoroacetate]	933	< 1
CCc1c(CN2CCC(C(=O)O)CC2)cccc1-c1nsc(-c2ccc(OC(C)C)c(C#N)c2)n1 [Example 16, 1-{[3-(5-{3-cyano-4-[(1-methylethyl)oxy]phenyl}-1,2,4-thiadiazol-3-yl)-2-ethylphenyl]methyl}-4-piperidinecarboxylic acid trifluoroacetate]	> 10000	–
CCc1c(CN2CCC(C(=O)O)CC2)cccc1-c1nsc(-c2ccc(CC(C)C)c(C#N)c2)n1 [Example 28, 1-[(3-{5-[3-cyano-4-(2-methylpropyl)phenyl]-1,2,4-thiadiazol-3-yl}-2-ethylphenyl)methyl]-4-piperidinecarboxylic acid]	> 10000	–

Other lines, results leading:

EC50 [1] [nM]	EC50 [2] [nM]	Compound
> 3160	≤ 10	CCc1c(CCN2CCC[C@H]2C(=O)O)cccc1-c1nsc(-c2ccc(CC(C)C)c(C#N)c2)n1 [Example 76, 1-[2-(3-{5-[3-cyano-4-(2-methylpropyl)phenyl]-1,2,4-thiadiazol-3-yl}-2-ethylphenyl)ethyl]-L-proline trifluoroacetate]
> 3160	≤ 10	CCc1c(CCN2CC[C@H](C(=O)O)C2)cccc1-c1nsc(-c2ccc(CC(C)C)c(C#N)c2)n1 [Example 79]
> 10000	≤ 10	CCc1c(CCN2C[C@H](O)C[C@H]2C(=O)O)cccc1-c1cnc(-c2ccc(OC(C)C)c(C#N)c2)s1 [Example 91]
> 3160	≤ 10	CCc1c(CCN2CCC(C(=O)O)CC2)cccc1-c1nsc(-c2cnc(OC(C)C)c(Cl)c2)n1 [Example 75, 1-{2-[3-(5-{5-chloro-6-[(1-methylethyl)oxy]-3-pyridinyl}-1,2,4-thiadiazol-3-yl)-2-ethylphenyl]ethyl}-4-piperidinecarboxylic acid trifluoroacetate]
> 10000	≤ 10	CCc1c(-c2nsc(-c3ccc(OC(C)C)c(Cl)c3)n2)cccc1C1CCN(CCC(=O)O)CC1 [Example 100, 3-{4-[3-(5-{3-chloro-4-[(1-methylethyl)oxy]phenyl}-1,2,4-thiadiazol-3-yl)-2-ethylphenyl]-1-piperidinyl}propanoic acid]
> 3160	< 1	CCc1c(CCN2C[C@H](O)C[C@H]2C(=O)O)cccc1-c1nsc(-c2ccc(OC(C)C)c(Cl)c2)n1 [Example 69]
> 3160	< 1	Cc1c(CCN2CCC(C(=O)O)CC2)cccc1-c1nsc(-c2ccc(OC(C)C)c(Cl)c2)n1 [Example 74, 1-{2-[3-(5-{3-chloro-4-[(1-methylethyl)oxy]phenyl}-1,2,4-thiadiazol-3-yl)-2-methylphenyl]ethyl}-4-piperidinecarboxylic acid]
> 10000	≤ 10	CCc1c(CCN2CCC[C@H]2C(=O)O)cccc1-c1cnc(-c2ccc(OC(C)C)c(C#N)c2)s1 [Example 88, 1-{2-[3-(2-{3-cyano-4-[(1-methylethyl)oxy]phenyl}-1,3-thiazol-5-yl)-2-ethylphenyl]ethyl}-L-proline trifluoroacetate]
> 3160	≤ 10	CCc1c(CCN2CCC(C(=O)O)C2)cccc1-c1nsc(-c2ccc(CC(C)C)c(C#N)c2)n1 (centres unmarked) [Example 78]

— patent US8389508B2 (Glaxo Group Limited, priority 2010, dated 2013)
